From patent US6541480B2, “1-aryl-1,8-naphthylidin-4-one derivative as type IV phosphodiesterase inhibitor” (Suntory Limited, priority 1997, dated 2003) come the findings set out here.

Where a name gives a salt, the structure may show the parent alone.

Assay [1] deals with type IV phosphodiesterase. Put plainly: Type IV phosphodiesterase inhibiting activity (3H-cAMP hydrolysis, PDE IV fraction from U937 cells). In kind it is biochemical. The note with it: PDE IV fraction from human U937 cells, 30° C., 30 minutes. As to the method: (1) Method of Measurement of Type IV Phosphodiesterase Inhibiting Activity
The following assay was used to evaluate the ability of the compound of the present invention to suppress type IV phosphodiesterase, according to Biochemical.
1) Type IV phosphodiesterase activity fractions were prepared as follows. Human histiocytic lymphoma cell line U937 was cultured in an RPMI1640 medium containing 10% fetal calf serum to obtain 10^9 cells of U937. The cells were recovered by centrifugation and suspended in 40 ml of buffer A (20 mM bis-tris, 5 mM 2-mercaptoethanol, 2 mM benzamidine, 2 mM EDTA, 0.1 mM 4-(2-aminoethyl)benzensulfonyl hydrochloride, 50 mM sodium acetate, pH=6.5). The cells were broken by a sonication and centrifuged (4° C., 10,000G, 10 minutes) to obtain a supernatent. This was filtered by a 0.45 μm filter to obtain the soluble fraction.
The soluble fraction obtained was applied into a 1×10 cm DEAE Sepharose column equalibrated with the buffer A. 120 ml of the buffer A containing a linear gradient solution of 0.05 to 1 M sodium acetate was used to separate the phosphodiesterase and recover 24 5-ml fractions. Each of the fractions was measured for the cAMP phosphodiesterase activity.
2) The test compound was reacted at a desired concentration in a reaction mixture containing 20 mM tris-HCl (pH 7.5), 1 mM MgCl2, 100 μM EDTA, 330 μg/ml calf serum albumin, 10 μg/ml 5′-nucleotidase, 0.4 μCi ^3H-cAMP ([…] cAMP) and the type IV phosphodiesterase stored solution at 30° C. for 30 minutes. QAE-Sephadex suspended in 10 mM of hepes-Na (pH-7.0) was added to the reaction mixture which was then allowed to stand for 5 minutes, then the supernatant was obtained, QAE-Sephadex was further added, to the supernatant, and was allowed to stand for 5 minutes, then the supernatant was obtained and measured for radioactivity.

Assay [2] deals with TNF-α production by LPS stimulated mouse peritoneal macrophages. As to the kind of experiment: TNF-α production inhibitory activity by LPS stimulated macrophages (ELISA). In kind it is cell-based. The note with it: LPS 10 μg/ml, 8 hours. As to the method:
(1) Method of Measurement of TNF-α Production Inhibitory Activity by LPS Stimulated Macrophages
The following assay was used to evaluate the ability of the compound of the present invention to suppress TNF-α production by LPS stimulated macrophages according to Immuno pharmacol. 29, 121-127 (1995).
1) 6 to 10 week old female BALB/c mice were used, 2 ml portions of thioglycolate were intraperitoneally administered, and the abdominal cavities were washed by 10 ml of PBS after 4 days, whereby 1 to 2×10^7 peritoneal cells were obtained per mouse. These were suspended in a hemocyte solution (0.75% ammonium chloride, 17 mM tris-hydrochlorate buffer, pH7.2), centrifuged, then resuspended in an RPMI1640 medium including 10% fetal calf serum and seeded in a 96-well cell culture plate at a density of 1×10^5 cells/50 μl/well. Since these cells adhered strongly to the tissue culture plate and were positive in nonspecific esterase staining, they were used for the test as mouse peritoneal macrophages. Mouse peritoneal macrophages were precultured overnight at 37° C. in 5% CO2 for the experiment.
2) E. Coli (serum type 055:B5) derived LPS was dissolved in PBS in a concentration of 1 mg/ml, then sterilized by filtration. The test compound was dissolved in DMSO to make a 1000-fold concentration solution of the final concentration of use. 10 μl of the above LPS stock solution (final concentration 10 μg/ml) and 1 μl of the tested substance stock solution were added and mixed in 0.5 ml of RPMI1640 medium containing 10% fetal calf serum. This was added to the above cells at 50 μl/well and cultured for 8 hours. The cultured supernatant was recovered from each well and the TNF-α concentration was measured by the ELISA method (Cytoscreen® Immunoassay Kit Mouse TNF-α, BioSource International).
A general note: An ELISA detects its analyte on a solid surface through an enzyme-linked reagent.

Regarding `O=C(Nc1cccnc1Cl)c1cn(-c2ccc(F)cc2)c2ncccc2c1=O` [Example 105, N-(2-Chloropyridin-3-yl)-1-(4-fluorophenyl)-1,4-dihydro[1,8]naphthylidin-4-one-3-carboxamide], the values for the IC50 in assay [1] and in assay [2] (Peritoneal macrophage) were 85 nM and 400 nM, respectively.
Turning to `COCCNC(=O)c1cn(-c2ccc(F)cc2)c2ncccc2c1=O` [Example 59, 1-(4-fluorophenyl)-N-(2-methoxyethyl)-1,4-dihydro[1,8]naphthylidin-4-one-3-carboxamide], half-maximal inhibition in assay [1] (IC50) required 640 nM.
As to `COc1ccc(-n2cc(C(=O)Nc3ccncc3)c(=O)c3cccnc32)cc1` [Example 122, 1-(4-Methoxyphenyl)-N-(4-pyridyl)-1,4-dihydro[1,8]naphthylidin-4-one-3-carboxamide], the IC50 (usually the point on the concentration scale where inhibition reaches its midpoint) in assay [1] turned out to be 58 nM; in assay [2] (Peritoneal macrophage) it was 1 nM.
In the same order, the values of `CC(=O)c1ccccc1NC(=O)c1cn(-c2ccc(F)cc2)c2ncccc2c1=O` [Example 80, N-(2-acetophenyl)-1-(4-fluorophenyl)-1,4-dihydro[1,8]naphthylidin-4-one-3-carboxamide] are 110 nM and 100 nM.
Take `CCn1cc(C(=O)NCCc2ccncc2)c(=O)c2ccc(C)nc21` [Comp. Ex., N-(2-(4-pyridyl)ethyl)-1-ethyl-7-methyl-1,4-dihydro[1,8]naphthylidin-4-one-3-carboxyamide, reference compound]: the IC50 was found to be 5200 nM in assay [1] and 10000 nM in assay [2] (Peritoneal macrophage).
`O=C(NCCc1ccncc1)c1cn(-c2ccccc2)c2ncccc2c1=O` [Example 119, 1-Phenyl-N-[2-(4-pyridyl)ethyl]-1,4-dihydro[1,8]naphthylidin-4-one-3-carboxamide]: the values for the IC50 in assay [1] and in assay [2] were 250 nM and 700 nM, respectively.
Regarding `O=C(Nc1c(Cl)cncc1Cl)c1cn(-c2ccc(Cl)cc2)c2ncccc2c1=O` [Example 125, 1-(4-Chlorophenyl)-N-(3,5-dichloropyridin-4-yl)-1,4-dihydro[1,8]naphthylidin-4-one-3-carboxamide], the IC50 in assay [1] was found to be 0.8 nM; in assay [2] (Peritoneal macrophage), 0.5 nM.
In the same order, the values of `O=C(Nc1c(Cl)cncc1Cl)c1cn(-c2ccccc2)c2ncccc2c1=O` [Example 118, N-(3,5-Dichloropyridin-4-yl)-1-phenyl-1,4-dihydro[1,8]naphthylidin-4-one-3-carboxamide] are 0.2 nM and 0.4 nM.
As to `CC(C)(C)OC(=O)Nc1ncc(-n2cc(C(=O)Nc3ccncc3)c(=O)c3cccnc32)cn1` [Example 150, 1-(2-tert-Butyloxycarbonylaminopyrimidin-5-yl)-N-(4-pyridyl)-1,4-dihydro[1,8]naphthylidin-4-one-3-carboxamide], the IC50 in assay [2] turned out to be 400 nM.
In assay [1], `CCOC(=O)c1cccc(NC(=O)c2cn(-c3ccc(F)cc3)c3ncccc3c2=O)c1` [Example 85, Ethyl 3-[{[1-(4-Fluorophenyl)-1,4-dihydro[1,8]naphthylidin-4-one-3-yl]carbonyl}amino]benzoate] returned an IC50 of 550 nM.
For the compound `N=C(N)c1cccc(-n2cc(C(=O)Nc3ccncc3)c(=O)c3cccnc32)c1` [Example 130, 1-(Benzamidin-3-yl)-N-(4-pyridyl)-1,4-dihydro[1,8]naphthylidin-4-one-3-carboxamide], 260 nM corresponded to half-maximal inhibition in assay [1] (IC50).
Still for that read-out and setting: the result for `O=C(Nc1cccnc1)c1cn(-c2ccccn2)c2ncccc2c1=O` [Example 131, 1-(2-Pyridyl)-N-(3-pyridyl)-1,4-dihydro[1,8]naphthylidin-4-one-3-carboxamide] reads 590 nM; that for `CCOC(=O)c1cn(-c2cccc(C(C)=O)c2)c2ncccc2c1=O` [Example 24, Ethyl 1-(3-Acetophenyl)-1,4-dihydro[1,8]naphthylidin-4-one-3-carboxylate], 600 nM.
As to `COc1ccccc1NC(=O)c1cn(-c2ccc(F)cc2)c2ncccc2c1=O` [Example 76, 1-(4-Fluorohenyl)-N-(2-methoxyphenyl)-1,4-dihydro[1,8]naphthylidin-4-one-3-carboxamide], the IC50 in assay [1] amounted to 500 nM.
Same read-out and setting: the figure for `N=C(N)c1cccc(NC(=O)c2cn(-c3ccc(F)cc3)c3ncccc3c2=O)c1` [Example 97, N-(benzamidin-3-yl)-1-(4-fluorophenyl)-1,4-dihydro[1,8]naphthylidin-4-one-3-carboxamide hydrochloride] is 470 nM.
In turn, `COc1ccc(C2CNC(=O)C2)cc1OC1CCCC1` (stereo not shown) [Rolipram, reference compound] registered an IC50 in assay [2] (Peritoneal macrophage) of 100 nM.
`Cc1ccc(-n2cc(C(=O)Nc3ccncc3)c(=O)c3cccnc32)cc1` [Example 120, N-(4-Pyridyl)-1-(4-tolyl)-1,4-dihydro[1,8]naphthylidin-4-one-3-carboxamide] registered an IC50 in assay [1] of 99 nM.
Consider `CNC(=O)c1cn(-c2ccc(F)cc2)c2ncccc2c1=O` [Example 52, 1-(4-Fluorophenyl)-N-methyl-1,4-dihydro[1,8]naphthylidin-4-one-3-carboxamide], for which, in assay [1], the IC50 turned out to be 150 nM.
Same read-out and setting: the result for `O=C(Nc1ccncc1)c1cn(-c2cccc3cccnc23)c2ncccc2c1=O` [Example 149, 1-(8-Quinonyl)-N-(4-pyridyl)-1,4-dihydro[1,8]naphthylidin-4-one-3-carboxamide] reads 940 nM.
The same measure, in the same setting: the figure for `O=C(Nc1ccncc1)c1cn(-c2ccc(O)nc2)c2ncccc2c1=O` [Example 145, 1-(2-Hydroxypyridin-5-yl)-N-(4-pyridyl)-1,4-dihydro[1,8]naphthylidin-4-one-3-carboxamide] is 400 nM; for `COc1ccc(-n2cc(C(=O)Nc3c(Cl)cncc3Cl)c(=O)c3cccnc32)cc1` [Example 123, N-(3,5-Dichloropyridin-4-yl)-1-(4-methoxyphenyl)-1,4-dihydro[1,8]naphthyldin-4-one-3-carboxamide] it is 0.6 nM.
In assay [1], `Cc1ccc(-n2cc(C(=O)Nc3c(Cl)cncc3Cl)c(=O)c3cccnc32)cc1` [Example 121, N-(3,5-Dichloroiyridin-4-yl)-1-(4-tolyl)-1,4-dihydro[18]naphthylidin-4-one-3-carboxamide] showed an IC50 of 3.1 nM.
`O=C(Nc1ccncc1)c1cn(-c2ccc(Cl)cc2)c2ncccc2c1=O` [Example 124, 1-(4-Chlorophenyl)-N-(4-pyridyl)-1,4-dihydro[1,8]naphthylidin-4-one-3-carboxamide]: in assay [1], the IC50 was 110 nM.
Same read-out and setting: the result for `O=C(Nc1ccccc1-c1ccccc1)c1cn(-c2ccc(F)cc2)c2ncccc2c1=O` [Example 100, N-(2-Biphenyl)-1-(4-fluorophenyl)-1,4-dihydro[1,8]naphthylidin-4-one-3-carboxamide] reads 650 nM.
Same read-out and setting: the figure for `O=C(NCc1ccccn1)c1cn(-c2ccc(F)cc2)c2ncccc2c1=O` [Example 62, 1-(4-Fluorophenyl)-N-(2-pyridyl)methyl-1,4-dihydro[1,8]naphthylidin-4-one-3-carboxamide] is 1600 nM; for `O=C(NCc1cccnc1)c1cn(-c2ccc(F)cc2)c2ncccc2c1=O` [Example 63, 1-(4-Fluorophenyl)-N-(3-pyridyl)methyl-1,4-dihydro[1,8]naphthylidin-4-one-3-carboxamide] it is 1200 nM; for `CCOC(=O)c1cn(-c2cccc([N+](=O)[O-])c2)c2ncccc2c1=O` [Example 19, Ethyl 1-(3-Nitrophenyl)-1,4-dihydro[1,8]naphthylidin-4-one-3-carboxylate] it is 930 nM.
